# Values quoted from earlier work, collected in patent US20120245028A1, “Methods for Use of Tetraalkyl Ammonium Halide Compositions as Post-emergence Higher Plant Herbicides” (priority 2011, published 2012).
# Columns and labels:
# [1] = system: small apple tree seedlings; conditions: following fungus inoculation and a treatment with 5% solution
# [2] = system: infected field apple trees; conditions: infected field apple trees treated with 5% solution
compound,measurement,setting,value
"CCCCCCCCCC[N+](C)(C)CCCCCCCCCC.[Br-] [DDAB, didecyl dimethyl ammonium bromide]",phytotoxicity,[1],severe phytotoxicity
same,damage caused by the treatments,[2],no obvious damage
same,effect upon the total number of growing buds,[2],no effect
